Laboratory results taken from patent US9057076B2, “Compounds purified from blue roses” (SUNTORY HOLDINGS LIMITED, priority 2009, dated 2015).

Assays:
[1] = Visual observation of color tone of isolated pigments; type: physicochemical
Text: The freeze-dried product, the blue pigment (1), the red pigment (2) and the blue pigment (3) obtained in the manner described above were visually observed for color tone.
The blue pigment (1), the red pigment (2) and the blue pigment (3) were visually observed for color tone.

[2] = Visible to ultraviolet absorption spectrum by HPLC with photodiode array detector; type: physicochemical; conditions: for λmax (absorption maximum): in 30% acetonitrile and 0.5% TFA, spectra 650 nm to 250 nm; for color compared with the compound of formula (II) of Patent Document 3: judged from the longer wavelength of the absorption maximum
Method: The blue pigment (1), the red pigment (2) and the blue pigment (3) were analyzed by HPLC, and their absorption spectra at 650 nm to 250 nm in 30% acetonitrile and 0.5% TFA were measured with a photodiode array detector (see FIGS. 3, 5 and 7).
HPLC was carried out by using a Shodex Asahipak ODP50 column (Showa Denko, 4.6 mm in diameter×25 cm) for the column and isocratic elution of a mobile phase consisting of 30% acetonitrile and 0.5% TFA at a flow rate of 0.6 ml/min. Detection was carried out by measuring the absorption spectra at 650 nm to 250 nm with a photodiode array detector (SPDM10Avp, Shimadzu) and monitoring the chromatogram at A560 nm.

[3] = freeze-dried product from Lavande variety transfected with plasmid pSPB919 (Example 1)
[4] = pigments from variety WKS82 transfected with plasmid pSPB130 (Example 3)

Compound | color tone, visually observed [1, 3] | color tone, visually observed [1, 4] | λmax (absorption maximum) [2] | color compared with the compound of formula (II) of Patent Document 3 [2]
O=c1oc2c(-c3cc(O)c(O)c(O)c3)[o+]c3cc(O)cc4c3c2c2c(c(O)c(O)cc12)O4 [red pigment (2)] | deep red | deep red | 535 nm | 
O=C(OC1C(O)OC2COC(=O)c3cc(Oc4c(-c5cc(O)c(O)c(O)c5)[o+]c5cc(O)cc6c5c4-c4c(C(=O)O)cc(O)c(O)c4O6)c(O)c(O)c3-c3c(cc(O)c(O)c3O)C(=O)O[C@H]2C1OC(=O)c1cc(O)c(O)c(O)c1)c1cc(O)c(O)c(O)c1 (some centres unmarked) [blue pigment (1)] | deep blue | deep blue | 593 nm | deeper blue color
O=C(OC1C(OC(=O)c2cc(O)c(O)c(O)c2)[C@@H]2OC(=O)c3cc(O)c(O)c(O)c3-c3c(cc(Oc4c(-c5cc(O)c(O)c(O)c5)[o+]c5cc(O)cc6c5c4-c4ccc(O)c(O)c4O6)c(O)c3O)C(=O)OCC2O[C@H]1OC(=O)c1cc(O)c(O)c(O)c1)c1cc(O)c(O)c(O)c1 (some centres unmarked) [blue pigment (3)] | deep blue | deep blue | 594 nm | deeper blue color
